According to patent US11434242B2, “Dopamine-b-hydroxylase inhibitors” (BIAL-PORTELA & Cª, S.A., priority 2017, dated 2022):
Marks after values point to notes of the source that are not given here.

Molecular target: T1, Dopamine beta hydroxylase (Homo sapiens, UniProt P09172)
T1 construct: 125 μl of plasma; tissue Instituto Português do Sangue Transplantação; host or cells: human plasma from healthy donors
T1 sequence (P09172 40-617 limits assumed): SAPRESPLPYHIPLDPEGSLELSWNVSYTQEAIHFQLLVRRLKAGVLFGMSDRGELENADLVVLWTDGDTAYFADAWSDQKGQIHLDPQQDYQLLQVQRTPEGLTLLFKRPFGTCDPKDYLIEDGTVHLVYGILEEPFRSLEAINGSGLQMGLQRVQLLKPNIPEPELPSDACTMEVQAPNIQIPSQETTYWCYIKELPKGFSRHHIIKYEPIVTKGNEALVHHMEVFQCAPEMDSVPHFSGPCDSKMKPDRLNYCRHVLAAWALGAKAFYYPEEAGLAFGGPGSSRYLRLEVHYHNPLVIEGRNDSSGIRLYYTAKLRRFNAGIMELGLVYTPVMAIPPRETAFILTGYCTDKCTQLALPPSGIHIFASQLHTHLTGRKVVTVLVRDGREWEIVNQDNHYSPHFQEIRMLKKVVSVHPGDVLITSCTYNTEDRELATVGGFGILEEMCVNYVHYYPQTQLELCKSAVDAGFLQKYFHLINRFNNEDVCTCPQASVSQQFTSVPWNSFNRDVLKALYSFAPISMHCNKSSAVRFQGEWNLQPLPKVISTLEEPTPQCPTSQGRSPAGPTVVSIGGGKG
Test: Dopamine beta hydroxylase activity in human plasma
Type: biochemical
Summary of the method: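 Octopamine production from tyramine over 45 min at 37° C, measured photometrically at 330 nm after SCX extraction and periodate oxidation against an octopamine standard curve, indicates plasma DβH activity. Compounds tested at final 10, 100 and 1000 nM in human plasma, pH 5.0 cofactor buffer, 10 min preincubation; results as % of control.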

Row | Structure (SMILES) | Plasma (0.01 μM), activity in % of control (inhibitor 0.01 μM) | Plasma (0.01 μM), activity in % of control, re-test (asterisked) (inhibitor 0.01 μM, re-tested under the same experimental conditions, asterisked data believed to be correct) | Plasma (0.1 μM), activity in % of control (inhibitor 0.1 μM) | Plasma (0.1 μM), activity in % of control, re-test (asterisked) (inhibitor 0.1 μM, re-tested under the same experimental conditions, asterisked data believed to be correct)
1 | Cn1c(CC(=O)NCC#N)c2n(c1=S)C[C@H](c1c(F)ccc(Br)c1F)C2 [Example 253, (S)-2-(6-(3-bromo-2,6-difluorophenyl)-2-methyl-3-thioxo-2,5,6,7-tetrahydro-3H-pyrrolo[1,2-c]imidazol-1-yl)-N-(cyanomethyl)acetamide] | 63.4 % of control |  | 24.5 % of control | 
2 | Cn1c(CC(=O)Nc2ccccn2)c2n(c1=S)C[C@H](c1c(F)ccc(Cl)c1F)C2 [Example 258, (S)-2-(6-(3-chloro-2,6-difluorophenyl)-2-methyl-3-thioxo-3,5,6,7-tetrahydro-2H-pyrrolo[1,2-c]imidazol-1-yl)-N-(pyridin-2-yl)acetamide] | 84.2 % of control |  | 21.3 % of control | 
3 | Cn1c(CCc2cccnc2)c2n(c1=S)C[C@@H](c1c(F)c(F)cc(F)c1F)C2 [Example 259, (R)-2-methyl-1-(2-(pyridin-3-yl)ethyl)-6-(2,3,5,6-tetrafluorophenyl)-6,7-dihydro-2H-pyrrolo[1,2-c]imidazole-3(5H)-thione] | 90.8 % of control |  | 76.1 % of control | 
4 | Cn1c(CCC(=O)O)c2n(c1=S)C[C@@H](c1c(F)c(F)cc(F)c1F)C2 [Example 260, (R)-3-(2-methyl-6-(2,3,5,6-tetrafluorophenyl)-3-thioxo-2,5,6,7-tetrahydro-3H-pyrrolo[1,2-c]imidazol-1-yl)propanoic Acid] | 84.1 % of control |  | 26.5 % of control | 
5 | Cn1c(CCC(N)=O)c2n(c1=S)C[C@H](c1c(F)ccc(Cl)c1F)C2 [Example 262, (S)-3-(6-(3-chloro-2,6-difluorophenyl)-2-methyl-3-thioxo-2,5,6,7-tetrahydro-3H-pyrrolo[1,2-c]imidazol-1-yl)propanamide] | 82.6 % of control |  | 70.1 % of control | 
6 | Cn1c(CCC(N)=O)c2n(c1=S)C[C@@H](c1c(F)cccc1F)C2 [Example 263, (R)-3-(6-(2,6-difluorophenyl)-2-methyl-3-thioxo-2,5,6,7-tetrahydro-3H-pyrrolo[1,2-c]imidazol-1-yl)propanamide] | 103.3 % of control |  | 87.1 % of control | 
7 | Cn1c(CCC(=O)N2CCCC2)c2n(c1=S)C[C@@H](c1c(F)cccc1F)C2 [Example 264, (R)-3-(6-(2,6-difluorophenyl)-2-methyl-3-thioxo-2,5,6,7-tetrahydro-3H-pyrrolo[1,2-c]imidazol-1-yl)-1-(pyrrolidin-1-yl)propan-1-one] | 98.4 % of control |  | 54.2 % of control | 
8 | Cn1c(CCC(=O)N2CCOCC2)c2n(c1=S)C[C@@H](c1c(F)ccc(F)c1F)C2 [Example 266, (R)-3-(2-methyl-3-thioxo-6-(2,3,6-trifluorophenyl)-2,5,6,7-tetrahydro-3H-pyrrolo[1,2-c]imidazol-1-yl)-1-morpholinopropan-1-one] | 85.3 % of control |  | 56.0 % of control | 
9 | Cn1c(CCC(=O)N2CCC[C@H]2CO)c2n(c1=S)C[C@@H](c1c(F)ccc(F)c1F)C2 [Example 267, 1-((S)-2-(hydroxymethyl)pyrrolidin-1-yl)-3-((R)-2-methyl-3-thioxo-6-(2,3,6-trifluorophenyl)-2,5,6,7-tetrahydro-3H-pyrrolo[1,2-c]imidazol-1-yl)propan-1-one] | 90.8 % of control |  | 55.8 % of control | 
10 | Cn1c(CCC(=O)Nc2ccccn2)c2n(c1=S)C[C@H](c1c(F)ccc(Cl)c1F)C2 [Example 268, (S)-3-(6-(3-chloro-2,6-difluorophenyl)-2-methyl-3-thioxo-2,5,6,7-tetrahydro-3H-pyrrolo[1,2-c]imidazol-1-yl)-N-(pyridin-2-yl)propanamide] | 99.8 % of control |  | 57.7 % of control | 
11 | Cn1c(CCC(=O)Nc2ccccn2)c2n(c1=S)C[C@@H](c1c(F)cccc1F)C2 [Example 269, (R)-3-(6-(2,6-difluorophenyl)-2-methyl-3-thioxo-2,5,6,7-tetrahydro-3H-pyrrolo[1,2-c]imidazol-1-yl)-N-(pyridin-2-yl)propanamide] | 105.6 % of control |  | 83.7 % of control | 
12 | Cn1c(CC(=O)NC2CCCC2)c2n(c1=S)C[C@@]1(c3c(F)ccc(Cl)c3F)C[C@@H]21 [Example 271, 2-((5aS,6aR)-5a-(3-chloro-2,6-difluorophenyl)-2-methyl-3-thioxo-2,3,5,5a,6,6a-hexahydrocyclopropa[3,4]pyrrolo[1,2-c]imidazol-1-yl)-N-cyclopentylacetamide] | 62.1 % of control |  | 13.2 % of control | 
13 | Cn1c(CC(=O)NC2CCCC2)c2n(c1=S)C[C@@]1(c3cc(Br)ccc3F)C[C@@H]21 [Example 272, 2-((5aS,6aR)-5a-(5-bromo-2-fluorophenyl)-2-methyl-3-thioxo-2,3,5,5a,6,6a-hexahydrocyclopropa[3,4]pyrrolo[1,2-c]imidazol-1-yl)-N-cyclopentylacetamide] | 73.5 % of control |  | 22.7 % of control | 
14 | Cn1c(CC(=O)NC2CCCC2)c2n(c1=S)C[C@@]1(c3cc(Cl)ccc3F)C[C@@H]21 [Example 273, 2-((5aS,6aR)-5a-(5-chloro-2-fluorophenyl)-2-methyl-3-thioxo-2,3,5,5a,6,6a-hexahydrocyclopropa[3,4]pyrrolo[1,2-c]imidazol-1-yl)-N-cyclopentylacetamide] | 86.6 % of control |  | 28.9 % of control | 

The remaining lines, values ahead:

Row | Plasma (0.01 μM), activity in % of control (inhibitor 0.01 μM) | Plasma (0.01 μM), activity in % of control, re-test (asterisked) (inhibitor 0.01 μM, re-tested under the same experimental conditions, asterisked data believed to be correct) | Plasma (0.1 μM), activity in % of control (inhibitor 0.1 μM) | Plasma (0.1 μM), activity in % of control, re-test (asterisked) (inhibitor 0.1 μM, re-tested under the same experimental conditions, asterisked data believed to be correct) | Structure (SMILES)
15 | 82.2 % of control | 46.0* % of control | 54.8 % of control | 6.7* % of control | CN(C(=O)Cc1c2n(c(=S)n1C)C[C@H](c1c(F)ccc(Br)c1F)C2)C1CCOC1 (stereo partly drawn) [Example 252, 2-((S)-6-(3-bromo-2,6-difluorophenyl)-2-methyl-3-thioxo-2,5,6,7-tetrahydro-3H-pyrrolo[1,2-c]imidazol-1-yl)-N-methyl-N-(tetrahydrofuran-3-yl)acetamide]
16 | 81.4 % of control |  | 62.2 % of control |  | Cn1c(CC(=O)NC2(C#N)CC2)c2n(c1=S)C[C@@H](c1c(F)ccc(F)c1F)C2 [Example 254, (R)—N-(1-cyanocyclopropyl)-2-(2-methyl-3-thioxo-6-(2,3,6-trifluorophenyl)-2,5,6,7-tetrahydro-3H-pyrrolo[1,2-c]imidazol-1-yl)acetamide]
17 | 71.8 % of control |  | 24.6 % of control |  | Cn1c(CC(=O)N[C@@H]2CCCOC2)c2n(c1=S)C[C@@H](c1c(F)ccc(F)c1F)C2 [Example 255, 2-((R)-2-methyl-3-thioxo-6-(2,3,6-trifluorophenyl)-2,5,6,7-tetrahydro-3H-pyrrolo[1,2-c]imidazol-1-yl)-N—((R)-tetrahydro-2H-pyran-3-yl)acetamide]
18 | 105.9 % of control |  | 92.4 % of control |  | Cl.Cn1c(CCN2CCOCC2)c2n(c1=S)C[C@@H](c1c(F)c(F)cc(F)c1F)C2 [Example 257, (R)-2-methyl-1-(2-morpholinoethyl)-6-(2,3,5,6-tetrafluorophenyl)-2,5,6,7-tetrahydro-3H-pyrrolo[1,2-c]imidazole-3-thione Hydrochloride]
19 | 86.2 % of control |  | 31.8 % of control |  | Cn1c(CCC(=O)N2CCCC2)c2n(c1=S)C[C@@H](c1c(F)c(F)cc(F)c1F)C2 [Example 261, (R)-3-(2-methyl-6-(2,3,5,6-tetrafluorophenyl)-3-thioxo-2,5,6,7-tetrahydro-3H-pyrrolo[1,2-c]imidazol-1-yl)-1-(pyrrolidin-1-yl)propan-1-one]
20 | 94.9 % of control |  | 70.6 % of control |  | Cn1c(CCC(=O)N[C@@H]2CCOC2)c2n(c1=S)C[C@@H](c1c(F)ccc(F)c1F)C2 [Example 265, 3-((R)-2-methyl-3-thioxo-6-(2,3,6-trifluorophenyl)-2,5,6,7-tetrahydro-3H-pyrrolo[1,2-c]imidazol-1-yl)-N—((R)-tetrahydrofuran-3-yl)propanamide]
21 | 88.1 % of control |  | 53.8 % of control |  | Cn1c(CCC(=O)NCC#N)c2n(c1=S)C[C@@H](c1c(F)ccc(F)c1F)C2 [Example 270, (R)—N-(cyanomethyl)-3-(2-methyl-3-thioxo-6-(2,3,6-trifluorophenyl)-2,5,6,7-tetrahydro-3H-pyrrolo[1,2-c]imidazol-1-yl)propanamide]
